Consider 1 compound from patent publication US20250170132A1, “SALTS AND POLYMORPHIC FORMS OF MENIN INHIBITORS AND PHARMACEUTICAL COMPOSITIONS THEREOF” (Syndax Pharmaceuticals, Inc., priority 2023, published 2025).

Common to all, as to format: physicochemical
Data set [1] in a line: Polymorph screening of Compound A citrate salt, form conversion (XRPD, DSC/TGA, DVS). The conditions noted are these: drying of wet cake (Form B); presence of water (Form C).
Data set [2] can be described thus: Form C slurry conditioning in EtOH/water (95/5).
A short description of data set [3]: Form C water activity study in MeCN/water. Here is the method: Water activity study in MeCN/water: A water activity investigation was conducted utilizing a MeCN/water system. […] Subsequently, Form A seeds were introduced into vials with water activities between 0.01 and 0.6. […] The solids were isolated and subjected to vacuum drying at room temperature overnight.

A short description of data set [4]: Form C screening experiments. Particulars: Exp. 16: 40 mg in water 0.1 mL, RT; CL → HSL.
Data set [5] in a line: Slurry and solvent evaporation polymorph experiments of Compound A citrate salt (Table 9). Particulars: dried solid, upon exposure to humidity. Here is the method:
Based on the approximate solubility data of Compound A citrate salt, 18 polymorph experiments were started at RT with stirring (Table 9). Wet cakes from the slurry experiments were analyzed after 5 days of stirring. Wet cake XRPD patterns were checked and materials showing no pattern change were heated from RT to 50° C.
Procedure • 1) Slurry at RT: ˜35 mg citrate salt was slurried in different solvents in 4 mL vials using a magnetic stirrer at RT. The solids in slurry were characterized by XRPD after 3-5 days. • 2) Slurry at 50° C.: Slurries with no change in wet cake XRPD pattern when compared to starting material were heated from RT to 50° C. Samples were analyzed after 2-3 days of stirring.
Wet cake samples were isolated and kept at 25° C. for 2 h for drying. After drying, samples were analyzed by XRPD.

Data set [6] is described as follows: Form C characterization and relative stability of the forms.
Text: Moreover, HNMR studies validated a 1:1 stoichiometry between the freebase and acid.

For `CCN(C(=O)c1cc(F)ccc1Oc1cncnc1N1CC2(CCN(CC3CCC(NS(=O)(=O)CC)CC3)CC2)C1)C(C)C.O=C(O)CC(O)(CC(=O)O)C(=O)O` (stereo not shown) [Form C], in data set [1], the “stability of polymorphic form / conversion” value is “unstable and converts to Form A in presence of water”. For the same compound, in data set [2] (EtOH/water (95/5), overnight stirring), the “Form conversion on slurry conditioning” value is on record as “converted to Form A”. The XRPD entry in data set [2] (Exp. 1: Form C 40 mg, EtOH/water (95/5) 0.2, RT, no Form A seed, slurry overnight) was “Form A”; in data set [2] (Exp. 2: Form C, EtOH/water (95/5), RT, Form A seed 20 mg), “Form A”; in data set [3] (Exp. 1: Form C 40 mg, MeCN/water aw 0.01, RT, no Form A seed) it was “Form C”; in data set [3] (Exp. 1a: MeCN/water aw 0.01, RT, Form A seed 20 mg added), “Form C”; in data set [3] (Exp. 2: Form C 40 mg, MeCN/water aw 0.22, RT, no Form A seed), “Form C”; in data set [3] (Exp. 2a: MeCN/water aw 0.22, RT, Form A seed 20 mg added), “Form C”. Moreover, the XRPD entry in data set [3] (Exp. 3: Form C 40 mg, MeCN/water aw 0.41, RT, no Form A seed) is listed as “Form C”; in data set [3] (Exp. 3a: MeCN/water aw 0.41, RT, Form A seed 20 mg added) it was “Form C”; in data set [3] (Exp. 4: Form C 40 mg, MeCN/water aw 0.59, RT, no Form A seed), “Form C”; in data set [3] (Exp. 4a: MeCN/water aw 0.59, RT, Form A seed 20 mg added), “Form C”. The “Form (XRPD) after addition of Form A seeds” value in data set [3] (MeCN/water, water activities 0.01 to 0.6, overnight stirring) is listed as “match with the Form C”. In data set [3] (MeCN/water, water activities 0.01 to 0.8, RT, overnight stirring), the “Form stability (XRPD of wet cake)” value is reported as “remained stable”. In addition, the “Form (XRPD) of isolated vacuum-dried solids” value in data set [3] (water activity levels of 0.01-0.6) was “consistent with Form C”; in data set [3] (water activity of 0.8), “combination of Form C and Form A”. In addition, the “Crystal Form” value in data set [4] is given as “Form A”. In addition, the Form conversion result is “converts to Form A upon exposure to humidity” in data set [5]; “transitions to Form A” in data set [6] (water and EtOH/water (95/5 v/v)). In addition, the “XRPD profile after heating” value in data set [6] (heating to 110° C.) was “aligned with that of Form C”. In data set [6] (overnight stirring in water at RT), the “Solid recovered from water” value is reported as “Form A was recrystallized”. Besides, the “XRPD pattern after drying” value in data set [6] (post-vacuum drying at room temperature) is “remained unchanged”.
